Assay [1] concerns the target Histone deacetylase. In words: Inhibition of HDAC in human HeLa cell extracts by fluorimetric assay. It counts as protein assay.
Assay [2] relates to K562. The assay is described as follows: Cytotoxicity against human K562 cells after 72 hrs by XTT assay. In kind it is functional. The settings on record: K562, 72 h.
Assay [3] in a line: Cytotoxicity against human KYO1 cells after 72 hrs by XTT assay. It counts as functional. The following applies: KYO1, 72 h.
The subject of assay [4] is MCF7. The assay is described as follows: Cytotoxicity against human MCF7 cells after 72 hrs by XTT assay. In kind it is functional. The settings on record: MCF7, 72 h.
The test system of assay [5] is HCT-116. The assay is described as follows: Cytotoxicity against human HCT116 cells after 72 hrs by XTT assay. It counts as functional. The following applies: HCT-116, 72 h.
Assay [6] relates to HeLa. In words: Cytotoxicity against human HeLa cells after 72 hrs by XTT assay. It counts as functional. A general note: Tetrazolium assays rely on reduction of a dye to a coloured formazan, in cell work by metabolically active cells.
In assay [7] the target is T1, Protein deacetylase HDAC6 (Homo sapiens, UniProt Q9UBN7).
T1 sequence (Q9UBN7 whole entry): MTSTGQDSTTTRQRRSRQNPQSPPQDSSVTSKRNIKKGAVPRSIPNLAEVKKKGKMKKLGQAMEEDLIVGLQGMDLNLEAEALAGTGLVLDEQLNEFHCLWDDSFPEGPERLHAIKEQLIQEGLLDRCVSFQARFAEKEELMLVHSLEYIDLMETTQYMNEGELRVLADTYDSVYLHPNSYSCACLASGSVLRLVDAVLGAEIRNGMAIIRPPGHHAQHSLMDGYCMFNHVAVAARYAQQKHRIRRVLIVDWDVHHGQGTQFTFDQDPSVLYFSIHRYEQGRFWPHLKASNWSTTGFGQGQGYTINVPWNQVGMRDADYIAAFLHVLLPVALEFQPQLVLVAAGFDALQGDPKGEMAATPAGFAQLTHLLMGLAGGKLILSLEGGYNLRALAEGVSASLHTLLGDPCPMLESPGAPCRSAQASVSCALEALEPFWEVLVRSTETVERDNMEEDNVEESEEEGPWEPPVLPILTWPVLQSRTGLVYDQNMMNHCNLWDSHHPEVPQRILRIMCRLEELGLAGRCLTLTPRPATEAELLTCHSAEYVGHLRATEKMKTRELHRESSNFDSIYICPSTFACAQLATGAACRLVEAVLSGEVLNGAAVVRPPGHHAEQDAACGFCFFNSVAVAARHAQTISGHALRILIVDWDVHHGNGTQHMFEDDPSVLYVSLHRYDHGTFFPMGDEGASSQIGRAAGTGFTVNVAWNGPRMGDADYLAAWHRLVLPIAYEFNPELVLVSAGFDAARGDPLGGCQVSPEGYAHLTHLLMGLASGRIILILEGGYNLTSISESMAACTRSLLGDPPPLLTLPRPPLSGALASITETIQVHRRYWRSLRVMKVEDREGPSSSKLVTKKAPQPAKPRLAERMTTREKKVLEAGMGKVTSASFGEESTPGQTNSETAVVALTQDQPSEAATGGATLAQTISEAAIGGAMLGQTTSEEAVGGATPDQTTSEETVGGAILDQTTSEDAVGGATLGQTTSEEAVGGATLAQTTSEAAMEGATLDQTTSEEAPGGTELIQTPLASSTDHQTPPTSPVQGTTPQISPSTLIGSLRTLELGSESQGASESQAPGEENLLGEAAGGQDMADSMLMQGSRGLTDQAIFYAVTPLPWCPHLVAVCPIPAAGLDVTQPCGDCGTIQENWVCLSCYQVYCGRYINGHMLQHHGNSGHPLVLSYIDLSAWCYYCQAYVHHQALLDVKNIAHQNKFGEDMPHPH
The assay is described as follows: Inhibition of human recombinant HDAC6 using Ac-Lys(Ac)-7-amino-4-methylcoumarin as substrate after 30 mins by trypsin-coupled fluorogenic assay.

Assay [8] addresses Histone deacetylase 3/Nuclear receptor corepressor 2 (HDAC3/NCoR2) (Homo sapiens, UniProt O15379). The assay is described as follows: Inhibition of human recombinant HDAC3/NCoR2 using Ac-Lys(Ac)-7-amino-4-methylcoumarin as substrate after 30 mins by trypsin-coupled fluorogenic assay. It counts as protein-complex assay.
The target in assay [9] is Histone deacetylase 2 (Homo sapiens, UniProt Q92769). In words: Inhibition of human recombinant HDAC2 using Ac-Lys(Ac)-7-amino-4-methylcoumarin as substrate after 30 mins by trypsin-coupled fluorogenic assay.
Assay [10] has as its target Histone deacetylase 1 (Homo sapiens, UniProt Q13547). The assay is described as follows: Inhibition of human recombinant HDAC1 using Ac-Lys(Ac)-7-amino-4-methylcoumarin as substrate after 30 mins by trypsin-coupled fluorogenic assay.
Assay [11] addresses T2, Histone deacetylase 8 (Homo sapiens, UniProt Q9BY41).
T2 sequence (Q9BY41 whole entry): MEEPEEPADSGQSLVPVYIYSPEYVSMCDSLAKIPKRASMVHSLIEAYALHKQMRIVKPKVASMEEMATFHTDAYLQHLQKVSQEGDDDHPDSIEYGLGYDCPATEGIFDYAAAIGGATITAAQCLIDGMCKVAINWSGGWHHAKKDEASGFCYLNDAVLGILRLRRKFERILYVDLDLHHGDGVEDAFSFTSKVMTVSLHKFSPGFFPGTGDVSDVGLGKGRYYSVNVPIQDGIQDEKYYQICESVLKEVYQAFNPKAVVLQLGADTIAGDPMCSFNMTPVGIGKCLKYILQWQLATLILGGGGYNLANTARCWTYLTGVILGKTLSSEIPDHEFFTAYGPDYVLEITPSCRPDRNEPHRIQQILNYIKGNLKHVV
The assay is described as follows: Inhibition of human recombinant HDAC8 using Arg-His-Lys(Ac)-Lys(Ac)-AMC as substrate after 30 mins by trypsin-coupled fluorogenic assay.

In assay [12] the target is T3, Protein deacetylase HDAC6 (Homo sapiens) (UniProt Q9UBN7).
T3 sequence (whole entry): T1 sequence (Q9UBN7 whole entry)
The following applies: Jurkat, 2 to 20 uM.
Description: Inhibition of HDAC6 in human Jurkat cells assessed as increase of acetylated alpha-tubulin level at 2 to 20 uM after 24 hrs by Western blot analysis

Assay [13] addresses Histone deacetylase (Homo sapiens) (UniProt Q13547+O15379+Q9UBN7+Q92769+Q9UQL6+Q8WUI4+Q9BY41+Q96DB2+P56524+Q9UKV0+Q969S8). The settings on record: Jurkat, 2 to 20 uM.
Description: Inhibition of HDAC in human Jurkat cells assessed as increase of acetylated-histone H3 level at 2 to 20 uM after 24 hrs by Western blot analysis

Each structure is given as a SMILES string. The source made the active and inactive calls. No cut-off for these calls is given here.

Histone deacetylase 1, sequence (Q13547 whole entry): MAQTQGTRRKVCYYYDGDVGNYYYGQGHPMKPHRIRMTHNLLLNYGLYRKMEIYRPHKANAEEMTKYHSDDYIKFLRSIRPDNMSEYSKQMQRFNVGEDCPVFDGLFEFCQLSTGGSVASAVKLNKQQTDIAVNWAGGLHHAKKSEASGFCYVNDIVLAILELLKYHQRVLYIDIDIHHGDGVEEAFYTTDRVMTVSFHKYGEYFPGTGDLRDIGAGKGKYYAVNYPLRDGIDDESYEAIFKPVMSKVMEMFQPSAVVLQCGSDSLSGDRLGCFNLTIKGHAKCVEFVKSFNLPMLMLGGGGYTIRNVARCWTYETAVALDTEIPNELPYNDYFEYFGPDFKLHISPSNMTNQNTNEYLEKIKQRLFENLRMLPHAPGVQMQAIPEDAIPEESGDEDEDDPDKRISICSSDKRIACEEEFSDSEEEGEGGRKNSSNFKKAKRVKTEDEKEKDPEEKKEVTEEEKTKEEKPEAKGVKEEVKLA
Histone deacetylase 2, sequence (Q92769 whole entry): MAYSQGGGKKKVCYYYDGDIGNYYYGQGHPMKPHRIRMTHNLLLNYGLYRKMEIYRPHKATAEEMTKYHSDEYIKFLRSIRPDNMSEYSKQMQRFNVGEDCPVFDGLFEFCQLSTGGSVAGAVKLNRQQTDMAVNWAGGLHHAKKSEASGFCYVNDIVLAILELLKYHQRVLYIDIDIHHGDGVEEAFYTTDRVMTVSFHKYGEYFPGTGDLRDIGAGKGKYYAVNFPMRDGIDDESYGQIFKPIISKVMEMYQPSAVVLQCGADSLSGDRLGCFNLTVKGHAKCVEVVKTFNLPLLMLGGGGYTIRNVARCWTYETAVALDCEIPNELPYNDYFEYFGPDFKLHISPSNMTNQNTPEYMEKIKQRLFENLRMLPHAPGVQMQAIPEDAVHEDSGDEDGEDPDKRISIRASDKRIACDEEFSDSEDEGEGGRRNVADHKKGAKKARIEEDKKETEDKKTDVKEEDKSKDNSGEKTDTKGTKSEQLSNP
Histone deacetylase 3/Nuclear receptor corepressor 2 (HDAC3/NCoR2), sequence (O15379 whole entry): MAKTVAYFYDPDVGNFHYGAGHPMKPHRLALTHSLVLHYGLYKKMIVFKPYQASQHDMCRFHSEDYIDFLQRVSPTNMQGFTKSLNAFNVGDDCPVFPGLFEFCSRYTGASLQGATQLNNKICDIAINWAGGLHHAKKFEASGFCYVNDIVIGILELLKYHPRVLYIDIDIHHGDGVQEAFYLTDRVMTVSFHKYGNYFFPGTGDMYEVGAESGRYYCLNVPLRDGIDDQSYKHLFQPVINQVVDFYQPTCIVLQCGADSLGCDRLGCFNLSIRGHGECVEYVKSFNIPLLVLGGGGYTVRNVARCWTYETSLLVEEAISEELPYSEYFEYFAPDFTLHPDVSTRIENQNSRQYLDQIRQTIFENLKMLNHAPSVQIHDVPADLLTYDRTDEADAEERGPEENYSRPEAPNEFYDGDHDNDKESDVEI
Histone deacetylase 3/Nuclear receptor corepressor 2 (HDAC3/NCoR2), sequence (Q9Y618 whole entry, further chain): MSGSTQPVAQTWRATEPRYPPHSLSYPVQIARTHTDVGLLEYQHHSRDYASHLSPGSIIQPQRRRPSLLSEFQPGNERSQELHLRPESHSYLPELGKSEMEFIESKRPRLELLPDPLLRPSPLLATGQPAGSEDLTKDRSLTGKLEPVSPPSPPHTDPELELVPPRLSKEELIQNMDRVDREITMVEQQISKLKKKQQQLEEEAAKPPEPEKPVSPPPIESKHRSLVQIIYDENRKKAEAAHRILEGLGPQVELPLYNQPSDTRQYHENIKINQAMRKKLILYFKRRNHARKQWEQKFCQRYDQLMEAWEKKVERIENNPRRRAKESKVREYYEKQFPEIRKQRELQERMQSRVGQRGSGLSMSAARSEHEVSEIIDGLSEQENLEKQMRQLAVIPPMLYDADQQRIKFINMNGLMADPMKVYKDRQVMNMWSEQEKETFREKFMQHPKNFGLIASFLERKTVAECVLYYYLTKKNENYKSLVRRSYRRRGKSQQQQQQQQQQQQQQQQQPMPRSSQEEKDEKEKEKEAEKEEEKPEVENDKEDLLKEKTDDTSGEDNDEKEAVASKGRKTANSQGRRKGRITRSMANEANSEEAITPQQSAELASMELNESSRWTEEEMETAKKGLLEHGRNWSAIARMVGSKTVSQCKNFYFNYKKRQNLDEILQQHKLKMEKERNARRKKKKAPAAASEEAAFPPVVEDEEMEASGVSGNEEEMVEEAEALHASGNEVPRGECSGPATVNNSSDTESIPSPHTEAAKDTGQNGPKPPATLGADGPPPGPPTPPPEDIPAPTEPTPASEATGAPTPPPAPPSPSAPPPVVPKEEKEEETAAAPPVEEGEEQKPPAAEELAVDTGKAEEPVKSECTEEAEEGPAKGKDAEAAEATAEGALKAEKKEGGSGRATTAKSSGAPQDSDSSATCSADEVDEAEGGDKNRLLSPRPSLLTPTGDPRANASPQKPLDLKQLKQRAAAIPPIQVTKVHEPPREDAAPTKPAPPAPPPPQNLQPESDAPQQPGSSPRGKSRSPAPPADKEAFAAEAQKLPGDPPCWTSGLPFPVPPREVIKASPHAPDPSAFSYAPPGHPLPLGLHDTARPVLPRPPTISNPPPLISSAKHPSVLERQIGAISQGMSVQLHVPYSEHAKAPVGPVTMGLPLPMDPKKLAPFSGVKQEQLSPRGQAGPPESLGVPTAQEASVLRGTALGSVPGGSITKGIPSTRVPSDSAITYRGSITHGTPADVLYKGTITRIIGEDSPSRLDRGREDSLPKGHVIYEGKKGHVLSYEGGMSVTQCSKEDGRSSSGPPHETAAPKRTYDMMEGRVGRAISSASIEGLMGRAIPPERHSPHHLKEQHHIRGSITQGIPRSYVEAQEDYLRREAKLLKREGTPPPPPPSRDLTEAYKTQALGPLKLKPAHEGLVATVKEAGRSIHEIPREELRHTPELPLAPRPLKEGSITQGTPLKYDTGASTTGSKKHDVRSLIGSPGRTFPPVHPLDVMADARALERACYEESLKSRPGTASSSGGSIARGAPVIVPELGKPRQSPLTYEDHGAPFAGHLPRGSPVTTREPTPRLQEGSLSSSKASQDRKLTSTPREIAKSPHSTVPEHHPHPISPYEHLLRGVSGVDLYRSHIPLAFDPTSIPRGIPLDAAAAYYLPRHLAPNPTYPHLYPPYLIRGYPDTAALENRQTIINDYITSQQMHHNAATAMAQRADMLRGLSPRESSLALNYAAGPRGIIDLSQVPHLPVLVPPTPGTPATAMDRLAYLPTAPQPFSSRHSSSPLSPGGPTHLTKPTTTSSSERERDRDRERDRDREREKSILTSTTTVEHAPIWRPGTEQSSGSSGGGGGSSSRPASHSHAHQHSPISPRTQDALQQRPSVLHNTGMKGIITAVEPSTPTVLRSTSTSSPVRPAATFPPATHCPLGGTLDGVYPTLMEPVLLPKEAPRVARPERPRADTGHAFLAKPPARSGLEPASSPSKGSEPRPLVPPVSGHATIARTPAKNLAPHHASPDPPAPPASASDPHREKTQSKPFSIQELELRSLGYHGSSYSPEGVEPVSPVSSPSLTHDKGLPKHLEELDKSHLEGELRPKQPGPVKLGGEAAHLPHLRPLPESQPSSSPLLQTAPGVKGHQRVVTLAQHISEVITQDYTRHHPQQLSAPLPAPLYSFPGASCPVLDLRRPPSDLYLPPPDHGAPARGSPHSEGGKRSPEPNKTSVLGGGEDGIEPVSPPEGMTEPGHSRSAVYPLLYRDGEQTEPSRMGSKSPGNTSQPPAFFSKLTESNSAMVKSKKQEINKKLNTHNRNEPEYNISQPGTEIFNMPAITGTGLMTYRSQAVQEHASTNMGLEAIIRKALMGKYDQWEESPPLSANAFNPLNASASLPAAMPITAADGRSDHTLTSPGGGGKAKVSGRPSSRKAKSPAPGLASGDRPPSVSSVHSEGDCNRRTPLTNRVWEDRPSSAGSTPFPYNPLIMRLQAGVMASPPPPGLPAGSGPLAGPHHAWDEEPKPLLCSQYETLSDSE

`CCC(=O)CCCCC[C@@H]1NC(=O)[C@H](C)N(C)C(=O)CCN(CC(C)C)C(=O)CN(Cc2ccccc2)C1=O` showed an IC50 in assay [1] greater than 100 µM.
On to `CCC(=O)CCCCC[C@@H]1NC(=O)[C@H]2CCCCN2C(=O)[C@H]([C@@H](C)CC)NC(=O)[C@H](Cc2cn(OC)c3ccccc23)NC1=O` [APICIDIN], for which the GI50 in [2] came to 1.5 µM; in [3], 2.7 µM; in [4] it was 5 µM; in assay [5], 1 µM; in [6], 2 µM.
On to `CCC(=O)CCCCC[C@@H]1NC(=O)[C@H](CCCCNC(C)=O)NC(=O)CCN(CC(C)C)C(=O)CN(CCc2c[nH]c3ccccc23)C1=O`, for which the GI50 in assay [2] was 1.5 µM; in [3], 10 µM; in assay [4] it was greater than 50 µM; in assay [5], 50 µM; in [6] it was 38 µM. Besides, the IC50 was greater than 10 µM in assay [7]; 0.32 µM in [8]; 0.37 µM in assay [9]; 0.2 µM in [10]; 0.21 µM in [1].
In assay [1], `CCC(=O)CCCCC[C@@H]1NC(=O)[C@H](C)N(C)C(=O)CCN(CC(C)C)C(=O)CN(Cc2cccc3ccccc23)C1=O` showed an IC50 of 18 µM.
Take `CCC(=O)CCCCC[C@@H]1NC(=O)[C@H](C)N(C)C(=O)CCN(CC(C)C)C(=O)CN(CC2CCCCC2)C1=O`: in assay [1], the IC50 was greater than 100 µM.
Take `CCC(=O)CCCCCN1CC(=O)N(CCc2c[nH]c3ccccc23)CC(=O)N(CC(C)C)CCC(=O)N(C)[C@@H](C)C1=O`: the IC50 in assay [1] is greater than 10 µM.
Take `CCC(=O)CCCCC[C@@H]1NC(=O)[C@H](C)N(C)C(=O)C[C@H](CC(C)C)NC(=O)[C@H](Cc2c[nH]c3ccccc23)NC1=O`: the GI50 was 7 µM in assay [2], 7.5 µM in assay [3], 18 µM in assay [4] and 4 µM in [6]. The IC50 in assay [7] was greater than 10 µM; in assay [11], 2.2 µM; in [9] it was 0.07 µM.
With `CCC(=O)CCCCC[C@@H]1NC(=O)[C@H](C)N(C)C(=O)C[C@H](CC(C)C)NC(=O)CN(CCc2c[nH]c3ccccc23)C1=O`, the IC50 in assay [1] was greater than 10 µM.
Consider `CCC(=O)CCCCC[C@@H]1NC(=O)[C@H](C)N(C)C(=O)CCN(CC(C)C)C(=O)[C@H](Cc2c[nH]c3ccccc23)NC1=O`, for which the IC50 in [1] was greater than 10 µM.
For the compound `CCC(=O)CCCCC[C@@H]1NC(=O)[C@H](C)N(C)C(=O)CCN(CC(C)C)C(=O)CN(Cc2ccc(C)cc2)C1=O`, in assay [1], the IC50 is greater than 100 µM.
Take `CCC(=O)CCCCC[C@@H]1NC(=O)[C@H](C)N(C)C(=O)CCN(CC(C)C)C(=O)CN(CCc2c[nH]c3ccccc23)C1=O`: the GI50 in [2] is 15 µM; in [3] it was 18 µM; in assay [4] it was greater than 50 µM; in assay [5], 28 µM; in assay [6], 30 µM. The IC50 in assay [7] is greater than 10 µM; in [8] it was 0.65 µM; in assay [9], 2 µM; in assay [10], 0.54 µM; in [1], 1 µM.
Take `CCC(=O)CCCCC[C@@H]1NC(=O)[C@H](CCCNC(=N)N)NC(=O)CCN(CC(C)C)C(=O)CN(CCc2c[nH]c3ccccc23)C1=O`: the GI50 in assay [2], in [3], in assay [4], in assay [5] and in [6] was greater than 50 µM in each case. Besides, the IC50 in assay [7] was greater than 10 µM; in [11], 0.75 µM; in assay [8] it was 0.1 µM; in assay [9], 0.3 µM; in assay [10] it was 0.18 µM; in [1] it was 0.06 µM. Moreover, in assay [12], the inhibition entry is “inactive”. For the same compound, the inhibition result in assay [13] was “Active”.
In assay [1], `CCC(=O)CCCCCN1CC(=O)N(Cc2cccc3ccccc23)CC(=O)N(CC(C)C)CCC(=O)N[C@@H](C)C1=O` registered an IC50 greater than 10 µM.
`CCC(=O)CCCCC[C@@H]1NC(=O)[C@H](CCCNC(=N)N)NC(=O)CCN(CC=C(C)C)C(=O)CN(CCc2c[nH]c3ccccc23)C1=O`: the GI50 in [4], in assay [5] and in assay [6] was greater than 50 µM throughout. The IC50 is greater than 10 µM in [7]; 0.27 µM in assay [8]; 1.2 µM in [9]; 0.7 µM in assay [10]; 0.25 µM in assay [1].
`CCC(=O)CCCCC[C@@H]1NC(=O)[C@H](C)N(C)C(=O)CCN(CC(C)C)C(=O)CN(CCc2ccccc2)C1=O` gave an IC50 in assay [1] greater than 100 µM.

Usually IC50 stands for the concentration needed to halve the response being measured. By GI50 is commonly meant the concentration that inhibits growth by half. Low values mean greater sensitivity of the cells, high ones lower sensitivity of the cells.

The values are drawn from ChEMBL document CHEMBL2169795, “Macrocyclic peptoid-Peptide hybrids as inhibitors of class I histone deacetylases” (ACS Med Chem Lett, 2012).
